Measurements reported in ChEMBL document CHEMBL5053551, “Structure-Based Design of Dual Partial Peroxisome Proliferator-Activated Receptor γ Agonists/Soluble Epoxide Hydrolase Inhibitors” (J Med Chem, 2021).
The source made the active and inactive calls. The rule behind the calls is not given here.

What was measured:
[1] = target: T1, Bifunctional epoxide hydrolase 2 (Homo sapiens, UniProt P34913); test: Inhibition of recombinant human full length sEH assessed as reduction in 6-methoxy-2-naphthaldehyde formation using PHOME as substrate preincubated for 30 to 45 mins followed by substrate addition and measured after 30 to 45 mins by fluorescence assay
T1 sequence (P34913 whole entry): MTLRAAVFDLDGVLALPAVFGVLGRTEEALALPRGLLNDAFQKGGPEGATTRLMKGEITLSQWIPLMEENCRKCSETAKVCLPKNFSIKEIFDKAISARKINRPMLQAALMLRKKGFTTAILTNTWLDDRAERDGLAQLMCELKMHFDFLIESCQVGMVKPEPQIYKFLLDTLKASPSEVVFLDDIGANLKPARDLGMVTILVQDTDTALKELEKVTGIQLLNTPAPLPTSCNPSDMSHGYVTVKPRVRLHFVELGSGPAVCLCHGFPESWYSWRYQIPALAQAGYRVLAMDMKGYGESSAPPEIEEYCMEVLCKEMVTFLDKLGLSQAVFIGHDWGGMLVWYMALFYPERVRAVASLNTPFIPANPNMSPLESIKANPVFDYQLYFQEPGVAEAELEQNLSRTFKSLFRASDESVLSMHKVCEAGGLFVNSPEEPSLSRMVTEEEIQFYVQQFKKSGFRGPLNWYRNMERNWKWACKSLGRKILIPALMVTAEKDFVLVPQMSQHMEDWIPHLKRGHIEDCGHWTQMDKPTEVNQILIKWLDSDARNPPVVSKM

[2] = target: T2, Peroxisome proliferator-activated receptor gamma (Homo sapiens, UniProt P37231); test: Partial agonist activity at GAL4-tagged human PPARgamma LBD expressed in HEK293T cells incubated for 12 to 14 hrs by dual-Glo luciferase assay; type: cell-based
T2 sequence (P37231 whole entry): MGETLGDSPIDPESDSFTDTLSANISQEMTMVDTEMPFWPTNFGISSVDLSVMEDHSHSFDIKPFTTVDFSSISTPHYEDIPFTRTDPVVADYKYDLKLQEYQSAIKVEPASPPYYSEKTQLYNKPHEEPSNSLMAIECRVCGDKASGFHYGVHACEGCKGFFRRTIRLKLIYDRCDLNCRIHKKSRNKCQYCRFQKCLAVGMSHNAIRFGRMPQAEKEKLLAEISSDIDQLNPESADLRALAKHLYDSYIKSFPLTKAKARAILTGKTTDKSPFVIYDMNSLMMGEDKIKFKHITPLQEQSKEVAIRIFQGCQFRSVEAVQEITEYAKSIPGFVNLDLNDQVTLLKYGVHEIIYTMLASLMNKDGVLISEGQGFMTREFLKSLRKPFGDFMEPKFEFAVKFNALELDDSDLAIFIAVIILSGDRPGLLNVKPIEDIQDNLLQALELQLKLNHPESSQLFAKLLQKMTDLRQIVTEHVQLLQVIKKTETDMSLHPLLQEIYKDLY

[3] = target: T3, Peroxisome proliferator-activated receptor gamma (Homo sapiens) (UniProt P37231); test: Partial agonist activity at GAL4-tagged human PPARgamma LBD expressed in HEK293T cells at 10 uM incubated for 12 to 14 hrs by dual-Glo luciferase assay; type: cell-based; settings: time 12-14 hrs
T3 sequence (whole entry): T2 sequence (P37231 whole entry)

[4] = Stability of compound in BALB/c mouse liver microsomes assessed as half life at 10 uM preincubated for 5 mins in presence of NADPH regenerating system followed by microsomal addition and measured upto 60 mins by HPLC analysis; type: ADME, Microsome; settings: time 65 min
[5] = Stability of compound in human liver microsomes assessed as half life at 10 uM preincubated for 5 mins in presence of NADPH regenerating system followed by microsomal addition and measured upto 60 mins by HPLC analysis; type: ADME, Microsome; settings: time 65 min
[6] = Stability of compound in Sprague-Dawley rat liver microsomes assessed as half life at 10 uM preincubated for 5 mins in presence of NADPH regenerating system followed by microsomal addition and measured upto 60 mins by HPLC analysis; type: ADME, Microsome; settings: time 65 min

SMILES	IC50 [1] [nM]	EC50 [2] [nM]	other results
O=C(NCc1ccccc1C(F)(F)F)c1ccc2c(c1)[nH]c(=O)n2Cc1ccccc1C(F)(F)F	304	–	–
CS(=O)(=O)Cc1ccc(CNC(=O)c2ccc3c(ccn3Cc3cccc(F)c3)c2)c(C(F)(F)F)c1	6	1350	–
COc1ccccc1Cn1c(=O)[nH]c2cc(C(=O)NCc3ccccc3C(F)(F)F)ccc21	319	–	Activity [3]: inactive
O=C(NCc1ccccc1C(F)(F)F)c1ccc2c(c1)[nH]c(=O)n2Cc1ccc(F)cc1	142	–	Activity [3]: inactive
O=C(NCc1ccccc1C(F)(F)F)c1ccc2c(c1)[nH]c(=O)n2Cc1ccccc1Cl	171	–	–
CC(C)S(=O)(=O)n1ccc2cc(C(=O)NCc3ccc(NS(=O)(=O)C4CC4)cc3C(F)(F)F)ccc21	2	1050	–
CCS(=O)(=O)Nc1ccc(CNC(=O)c2ccc3c(ccn3Cc3cccc(F)c3)c2)c(C(F)(F)F)c1	3	370	–
Nc1ccc(CNC(=O)c2ccc3c(ccn3Cc3cccc(F)c3)c2)c(C(F)(F)F)c1	7	–	–
COc1ccc(CNC(=O)c2ccc3c(c2)[nH]c(=O)n3Cc2cccc(F)c2)c(C(F)(F)F)c1	29	–	–
O=C(NCc1ccccc1C(F)(F)F)c1ccc2c(c1)[nH]c(=O)n2Cc1cccc(Cl)c1	87	–	–
O=C(NCc1ccccc1C(F)(F)F)c1ccc2c(c1)[nH]c(=O)n2Cc1ccc(Cl)cc1	197	–	Activity [3]: inactive
O=C(NCc1ccccc1C(F)(F)F)c1ccc2c(c1)ncn2Cc1cccc(F)c1	107	–	–
O=C(NCc1ccccc1C(F)(F)F)c1ccc2c(ccn2Cc2cccc(F)c2)c1	321	–	–
CC(C)n1ccc2cc(C(=O)NCc3ccc(NS(=O)(=O)C4CC4)cc3C(F)(F)F)ccc21	5	490	–
COc1ccc(CNC(=O)c2ccc3c(ccn3Cc3cccc(F)c3)c2)c(C(F)(F)F)c1	310	850	–
O=C(NCc1ccccc1C(F)(F)F)c1ccc2c(c1)[nH]c(=O)n2Cc1ccc(Cl)cc1Cl	100	–	Activity [3]: inactive

SMILES	IC50 [1] [nM]	EC50 [2] [nM]	other results
CSCc1ccc(CNC(=O)c2ccc3c(ccn3Cc3cccc(F)c3)c2)c(C(F)(F)F)c1	6	1430	–
O=C(NCc1ccccc1C(F)(F)F)c1ccc2c(c1)[nH]c(=O)n2Cc1cc(F)cc(F)c1	48	–	–
O=C(NCc1ccccc1C(F)(F)F)c1ccc2c(c1)[nH]c(=O)n2CC1CCCCC1	322	–	–
O=C(NCc1ccccc1C(F)(F)F)c1ccc2c(c1)[nH]c(=O)n2Cc1ccccc1F	55	–	Activity [3]: inactive
COc1ccc(CNC(=O)c2ccc3c(c2)[nH]c(=O)n3Cc2ccccc2)c(C(F)(F)F)c1	28	–	–
COc1ccc(CNC(=O)c2ccc3c(c2)ncn3Cc2cccc(F)c2)c(C(F)(F)F)c1	40	–	–
CN(C)CCn1ccc2cc(C(=O)NCc3ccc(NS(=O)(=O)C4CC4)cc3C(F)(F)F)ccc21	28	–	Activity [3]: inactive
O=C(NCc1ccccc1C(F)(F)F)c1ccc2c(c1)[nH]c(=O)n2Cc1ccc(Cl)c(Cl)c1	1090	–	–
O=C(NCc1ccccc1C(F)(F)F)c1ccc2c(c1)[nH]c(=O)n2Cc1ccccc1	82	–	–
O=C(NCc1ccccc1C(F)(F)F)c1ccc2c(c1)[nH]c(=O)n2Cc1cccc(F)c1	153	120	–
O=C(NCc1ccc(NC(=O)C(F)(F)F)cc1C(F)(F)F)c1ccc2c(ccn2Cc2cccc(F)c2)c1	5	–	–
O=C(NCc1ccccc1C(F)(F)F)c1ccc2c(c1)[nH]c(=O)n2Cc1ccccn1	456	–	Activity [3]: inactive
CC(C)Cn1ccc2cc(C(=O)NCc3ccc(NS(=O)(=O)C4CC4)cc3C(F)(F)F)ccc21	2	–	half-life at 10 µM [4]: 53 min; half-life at 10 µM [5]: 76 min; half-life at 10 µM [6]: 41 min
O=C(NCc1ccc(NS(=O)(=O)C2CC2)cc1C(F)(F)F)c1ccc2[nH]ccc2c1	29	1480	–
COc1ccc(CNC(=O)c2ccc3c(cnn3Cc3cccc(F)c3)c2)c(C(F)(F)F)c1	22	1590	–
O=C(NCc1ccccc1C(F)(F)F)c1ccc2c(cnn2Cc2cccc(F)c2)c1	36	1600	–
